# According to patent US20080015146A1, “Dpp-IV Inhibitors” (SANTHERA PHARMACEUTICALS (DEUTSCHLAND) AG, priority 2004, published 2008):
# Where a name gives a salt, the structure may show the parent alone.
# Biological target: T1, DPP-IV (Homo sapiens, UniProt P27487)
# T1 construct: Soluble human DPP-IV lacking the transmembrane anchor (Gly31-Pro766); Pre-Pro-alpha-mating factor secretion leader (N, cleaved yes); made in house
# Assay: Continuous fluorimetric assay of inhibition of DPP-IV peptidase activity (cleavage of Gly-Pro-AMC)
# Format: biochemical
# Conditions: substrate Gly-Pro-AMC 16 μM, pH 7.4, 25° C., 1% DMSO; assays carried out with human and porcine DPP-IV (comparable activities)
# Method: Inhibition of DPP-IV peptidase activity was monitored with a continuous fluorimetric assay. This assay is based on the cleavage of the substrate Gly-Pro-AMC (Bachem) by DPP-IV, releasing free AMC. The assay is carried out in 96-well microtiterplates. In a total volume of 100 μl compounds are preincubated with […] DPP-IV employing a buffer containing 10 mM Hepes, 150 mM NaCl, 0.005% Tween 20 (pH 7.4). […] The final concentration of DMSO is 1%. The inhibitory potential of the compounds were determined.
# Soluble human DPP-IV lacking the transmembrane anchor (Gly31-Pro766) was expressed in a recombinant YEAST-strain as Pre-Pro-alpha-mating fusion. The secreted product (rhuDPP-IV-Gly31-Pro766) was purified from fermentation broth (>90% purity).
# T1 sequence (P27487 31-766): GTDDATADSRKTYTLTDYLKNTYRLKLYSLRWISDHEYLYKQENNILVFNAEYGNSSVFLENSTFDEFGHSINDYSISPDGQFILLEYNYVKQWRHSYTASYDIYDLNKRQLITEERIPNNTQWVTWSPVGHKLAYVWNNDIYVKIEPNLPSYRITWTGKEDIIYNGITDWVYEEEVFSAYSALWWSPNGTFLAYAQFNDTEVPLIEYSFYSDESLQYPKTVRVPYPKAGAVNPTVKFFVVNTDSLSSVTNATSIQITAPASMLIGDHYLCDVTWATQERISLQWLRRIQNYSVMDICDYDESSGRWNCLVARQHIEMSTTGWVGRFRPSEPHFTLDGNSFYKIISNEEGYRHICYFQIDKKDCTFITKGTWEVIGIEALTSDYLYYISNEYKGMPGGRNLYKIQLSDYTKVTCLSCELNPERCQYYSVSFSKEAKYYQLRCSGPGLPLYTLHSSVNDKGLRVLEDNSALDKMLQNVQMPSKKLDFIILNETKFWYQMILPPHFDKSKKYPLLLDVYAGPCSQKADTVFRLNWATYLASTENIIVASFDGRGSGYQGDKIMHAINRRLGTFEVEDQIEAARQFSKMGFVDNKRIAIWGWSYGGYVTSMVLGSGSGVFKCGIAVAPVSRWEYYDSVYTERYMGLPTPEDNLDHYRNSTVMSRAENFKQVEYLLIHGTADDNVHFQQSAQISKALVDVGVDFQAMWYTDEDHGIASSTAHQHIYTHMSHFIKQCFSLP
row,Structure (SMILES),IC50
1,"N[C@@H](CC(=O)N1CCC[C@H]1c1nc(-c2ccccc2)no1)Cc1ccccc1F [Example 1, (R)-3-Amino-4-(2-fluoro-phenyl)-1-[(S)-2-(3-phenyl-[1,2,4]oxadiazol-5-yl)-pyrrolidin-1-yl]-butan-1-one hydrochloride]",< 100 nM
2,"N[C@@H](CC(=O)N1CCC[C@H]1c1nc(-c2cccc(Cl)c2)no1)Cc1ccccc1F [Example 2, (R)-3-Amino-1-{(S)-2-[3-(3-chloro-phenyl)[1,2,4]oxadiazol-5-yl)-pyrrolidin-1-yl}-4-(2-fluoro-phenyl)-butan-1-one hydrochloride]",< 100 nM
3,"N[C@@H](CC(=O)N1CCC[C@H]1c1nc(-c2cccc(F)c2)no1)Cc1ccccc1F [Example 3, (R)-3-Amino-1-{(S)-2-[3-(3-fluoro-phenyl) [1,2,4]oxadiazol-5-yl)-pyrrolidin-1-yl}-4-(2-fluoro-phenyl)-butan-1-one hydrochloride]",< 100 nM
4,"CS(=O)(=O)c1ccc(-c2noc([C@@H]3CCCN3C(=O)C[C@H](N)Cc3ccccc3F)n2)cc1 [Example 4, (R)-3-Amino-4-(2-fluoro-phenyl)-1-{(S)-2-[3-(4-methanesulphonyl-phenyl)[1,2,4]oxadiazol-5-yl]-pyrrolidin-1-yl}-butan-1-one hydrochloride]",< 100 nM
5,"N[C@@H](CC(=O)N1CCC[C@H]1c1nc(-c2ccccn2)no1)Cc1ccccc1F [Example 5, (R)-3-Amino-4-(2-fluoro-phenyl)-1-[(S)-2-(3-pyridin-2-yl-[1,2,4]oxadiazol-5-yl)-pyrrolidin-1-yl]-butan-1-one]",< 100 nM
6,"N[C@@H](CC(=O)N1CCC[C@H]1c1nc(-c2cccc(F)c2)no1)Cc1cccc(Cl)c1 [Example 6, (R)-3-Amino-4-(3-chloro-phenyl)-1-{(S)-2-[3-(3-fluoro-phenyl)-[1,2,4]oxadiazol-5-yl]-pyrrolidin-1-yl}-butan-1-one trifluoroacetic acid salt]",< 100 nM
7,"N[C@@H](CC(=O)N1CCC[C@H]1c1nc(-c2cc(F)cc(F)c2)no1)Cc1ccccc1F [Example 7, (R)-3-Amino-1-{(S)-2-[3-(3,5-difluoro-phenyl)-[1,2,4]oxadiazol-5-yl)-pyrrolidin-1-yl}-4-(2-fluoro-phenyl)-butan-1-one trifluoracetic acid salt]",< 100 nM
8,"N[C@@H](CC(=O)N1CCC[C@H]1c1nc(-c2ccc(F)cc2F)no1)Cc1ccccc1F [Example 8, (R)-3-Amino-1-{(S)-2-[3-(2,4-difluoro-phenyl)-[1,2,4]oxadiazol-5-yl)-pyrrolidin-1-yl}-4-(2-fluoro-phenyl)-butan-1-one trifluoracetic acid salt]",< 100 nM
9,"CS(=O)(=O)c1cccc(-c2noc([C@@H]3CCCN3C(=O)C[C@H](N)Cc3ccccc3F)n2)c1 [Example 9, (R)-3-Amino-1-{(S)-2-[3-(3-methanesulphonyl-phenyl)-[1,2,4]oxadiazol-5-yl)-pyrrolidin-1-yl}-4-(2-fluoro-phenyl)-butan-1-one trifluoracetic acid salt]",< 100 nM
10,"CS(=O)(=O)Nc1ccc(-c2noc([C@@H]3CCCN3C(=O)C[C@H](N)Cc3ccccc3F)n2)cc1 [Example 10, N-[4-(5-{(S)-1-[(R)-3-Amino-4-(2-fluoro-phenyl)-butyryl]-pyrrolidin-2-yl}-[1,2,4]oxadiazol-3-yl)-phenyl]-methanesulphonamide trifluoroacetic acid salt]",< 100 nM
11,"N[C@@H](CC(=O)N1CCC[C@H]1c1nc(C2CC2)no1)Cc1ccccc1F [Example 11, (R)-3-Amino-1-[(S)-2-(3-cyclopropyl-[1,2,4]oxadiazol-5-yl)-pyrrolidin-1-yl]-4-(2-fluorophenyl)-butan-1-one trifluoracetic acid salt]",< 100 nM

# Further lines, results first:
row,IC50,Structure (SMILES)
1,< 100 nM,"N[C@@H](CC(=O)N1CCC[C@H]1c1nc(C2CCC2)no1)Cc1cc(F)c(F)cc1F [Example 15, (R)-3-Amino-1-[(S)-2-(3-cyclobutyl-[1,2,4]oxadiazol-5-yl)-pyrrolidin-1-yl]-4-(2,4,5-trifluoro-phenyl)-butan-1-one formate salt]"
2,< 100 nM,"COCC(C)(C)c1noc([C@@H]2CCCN2C(=O)C[C@H](N)Cc2cc(F)c(F)cc2F)n1 [Example 24, (R)-3-Amino-1-{(S)-2-[3-(2-methoxy-1,1-dimethyl-ethyl)-[1,2,4]oxadiazol-5-yl]-pyrrolidin-1-yl}-4-(2,4,5-trifluoro-phenyl)-butan-1-one formate salt]"
3,< 100 nM,"COCC1(c2noc([C@@H]3CCCN3C(=O)C[C@H](N)Cc3cc(F)c(F)cc3F)n2)CC1 [Example 25, (R)-3-Amino-1-{(S)-2-[3-(1-methoxymethyl-cyclopropyl)-[1,2,4]oxadiazol-5-yl]-pyrrolidin-1-yl}-4-(2,4,5-trifluoro-phenyl)-butan-1-one formate salt]"
4,< 100 nM,"N[C@@H](CC(=O)N1CC(F)(F)C[C@H]1c1nc(C2CC2)no1)Cc1cc(F)c(F)cc1F [Example 27, (R)-3-Amino-1-[(S)-2-(3-cyclopropyl-[1,2,4]oxadiazol-5-yl)-4,4-difluoro-pyrrolidin-1-yl]-4-(2,4,5-trifluoro-phenyl)-butan-1-one formate salt]"
5,101 to 1000 nM,"N[C@@H](CC(=O)N1CCC[C@@H]1c1nc(-c2ccccc2)no1)Cc1ccccc1F [Example 28, (R)-3-Amino-4-(2-fluoro-phenyl)-1-[(R)-2-(3-phenyl-[1,2,4]oxadiazol-5-yl)-pyrrolidin-1-yl]-butan-1-one hydrochloride]"
6,101 to 1000 nM,"N[C@@H](CC(=O)N1CCC[C@@H]1c1nc(-c2cccc(Cl)c2)no1)Cc1ccccc1F [Example 29, (R)-3-Amino-1-{(R)-2-[3-(3-chloro-phenyl) [1,2,4]oxadiazol-5-yl)-pyrrolidin-1-yl}-4-(2-fluoro-phenyl)-butan-1-one hydrochloride]"
7,101 to 1000 nM,"N[C@@H](CC(=O)N1CCC[C@@H]1c1nc(-c2cccc(F)c2)no1)Cc1ccccc1F [Example 30, (R)-3-Amino-1-{(R)-2-[3-(3-fluoro-phenyl) [1,2,4]oxadiazol-5-yl)-pyrrolidin-1-yl}-4-(2-fluoro-phenyl)-butan-1-one hydrochloride]"
8,< 100 nM,"CS(=O)(=O)c1ccc(-c2noc([C@H]3CCCN3C(=O)C[C@H](N)Cc3ccccc3F)n2)cc1 [Example 31, (R)-3-Amino-4-(2-fluoro-phenyl)-1-{(R)-2-[3-(4-methanesulphonyl-phenyl) [1,2,4]oxadiazol-5-yl]-pyrrolidin-1-yl}-butan-1-one hydrochloride]"
9,101 to 1000 nM,"N[C@@H](CC(=O)N1CCC[C@@H]1c1nc(-c2ccccn2)no1)Cc1ccccc1F [Example 32, (R)-3-Amino-4-(2-fluoro-phenyl)-1-[(R)-2-(3-pyridin-2-yl-[1,2,4]oxadiazol-5-yl)pyrrolidin-1-yl]-butan-1-one hydrochloride]"
10,< 100 nM,"N[C@@H](CC(=O)N1CCC[C@H]1c1noc(-c2ccc(F)cn2)n1)Cc1cc(F)c(F)cc1F [Example 36, (R)-3-Amino-1-{(S)-2-[5-(5-fluoro-pyridin-2-yl)-[1,2,4]oxadiazol-3-yl]-pyrrolidin-1-yl}-4-(2,4,5-trifluoro-phenyl)-butan-1-one formate salt]"
11,< 100 nM,"N[C@@H](CC(=O)N1CCC[C@H]1c1nc2cc(Cl)ccc2[nH]1)Cc1ccccc1F [Example 40, (R)-3-Amino-1-[(S)-2-(5-chloro-1H-benzoimidazol-2-yl)-pyrrolidin-1-yl]-4-(2-fluorophenyl)-butan-1-one trifluoroacetic acid salt]"
